Experiments:
Swiss-Webster mice [1] = assay: Locomotor stimulant and depressant effects in mice; conditions: i.p.
[2] = system: New Zealand white rabbits; assay: Intraocular pressure (IOP) after topical application to the rabbit eye; assay type: in vivo; conditions: for IOP: mean ± S.E.
Swiss-Webster mice [3] = assay: H1 receptor antagonist (triprolidine) interaction study, locomotor activity in mice; conditions: mice pretreated with triprolidine 20 min before the test compound
[4] = system: New Zealand white rabbits; assay: Pupil diameter / mydriasis after topical application to the rabbit eye; assay type: in vivo; conditions: for Pupil Diameter: mean ± S.E.
Protocol: These diastereomers were administered topically as either 1% or 2% solutions in buffered saline. Pupillary diameter and IOP were measured in all animals over a six hour time period during the day to minimize diurnal variations in IOP and pupil diameter.
The experiments were performed on adult male New Zealand white rabbits weighing 3.0–6.0 kg. All rabbits were caged individually and maintained on a 12 hr/12 hr light/dark schedule with free access to food and water. All animal procedures were in conformity with the ARVO Resolution on the Use and Care of Animals in Research. All treated rabbits had served as controls by having received a saline treatment on a different day.
Only one eye received drug treatment. The contralateral eye served as a control. Saline (or PBS) and drug treated rabbits were treated and observed simultaneously. A single dose was given at time zero and IOP and pupil diameter measured at −1.0, −0.5, 0.5, 1, 3 and 5 hrs post-treatment.
Pupil diameter was measured visually at the point of the greatest horizontal diameter with a transparent millimeter ruler. All measurements were made under the identical ambient lighting conditions.
Mean and Standard Error values were used to construct time-response and dose-response curves for the treated and contralateral eye of research rabbits. The data were analyzed statistically by an analysis of variance and a Bonferoni's test for significance. P<0.05 was the accepted level of significance.

[5] = — denotes absence of significant effect
[6] = 1% topical, drug treated eye (T), 0.5 hr
[7] = 1% topical, drug treated eye (T), 1 hr
[8] = 1% topical, drug treated eye (T), 3 hr
[9] = 1% topical, drug treated eye (T), 5 hr
[10] = 1% topical, drug treated eye (T), −0.5 hr (pre-treatment)
[11] = 1% topical, drug treated eye (T), −1 hr (pre-treatment)
[12] = 1% topical, untreated contralateral eye (U), 0.5 hr
[13] = 1% topical, untreated contralateral eye (U), 1 hr
[14] = 1% topical, untreated contralateral eye (U), 3 hr
[15] = 1% topical, untreated contralateral eye (U), 5 hr
[16] = 1% topical, untreated contralateral eye (U), −0.5 hr (pre-treatment)
[17] = 1% topical, untreated contralateral eye (U), −1 hr (pre-treatment)
[18] = 2% topical, drug treated eye (T), 0.5 hr
[19] = 2% topical, drug treated eye (T), 1 hr
[20] = 2% topical, drug treated eye (T), 3 hr
[21] = 2% topical, drug treated eye (T), 5 hr
[22] = 2% topical, drug treated eye (T), −0.5 hr (pre-treatment)
[23] = 2% topical, drug treated eye (T), −1 hr (pre-treatment)
[24] = 2% topical, untreated contralateral eye (U), 0.5 hr
[25] = 2% topical, untreated contralateral eye (U), 1 hr
[26] = 2% topical, untreated contralateral eye (U), 3 hr
[27] = 2% topical, untreated contralateral eye (U), 5 hr
[28] = 2% topical, untreated contralateral eye (U), −0.5 hr (pre-treatment)
[29] = 2% topical, untreated contralateral eye (U), −1 hr (pre-treatment)

(−)-norpseudoephedrine
Depression Time: 30-min period following injection in which the maximal depression occurred (Swiss-Webster mice [1]): 10 to 40 min | Stimulation Time: 30-min period following injection in which the maximal stimulant effect occurred (Swiss-Webster mice [1]): 40 to 70 min | locomotor depressant effects, time course (result in words) (Swiss-Webster mice [1]): locomotor depression at an earlier time (10–40 minutes following injection) and with a lower dose range | locomotor stimulant effects, time course (result in words) (Swiss-Webster mice [1]): Dose-dependent increases in locomotor activity of slower onset and longer duration | Depression Potency: dose resulting in ½ the maximal depressant effect (ID50) (Swiss-Webster mice [1]; [5]): 3.9 mg/kg | Stimulation Potency: dose resulting in ½ the maximal stimulant effect (ID50) (Swiss-Webster mice [1]; [5]): 51.1 mg/kg | effect on IOP (result in words) ([2]; 1% or 2% topical, rabbit): accompanying increase in IOP | IOP [2, 6]: 17 ± 1.0 mmHg | IOP [2, 7]: 17 ± 1.5 mmHg | IOP [2, 8]: 21 ± 1.6 mmHg | IOP [2, 9]: 18 ± 1.0 mmHg | IOP [2, 10]: 18 ± 1.6 mmHg | IOP [2, 11]: 17 ± 1.0 mmHg | IOP [2, 12]: 21 ± 1.0 mmHg | IOP [2, 13]: 18 ± 1.6 mmHg | IOP [2, 14]: 20 ± 1.9 mmHg | IOP [2, 15]: 23 ± 0.9 mmHg | IOP [2, 16]: 20 ± 1.7 mmHg | IOP [2, 17]: 17 ± 1.5 mmHg | IOP [2, 18]: 15 ± 0.5 mmHg | IOP [2, 19]: 18 ± 0.7 mmHg | IOP [2, 20]: 18 ± 1.1 mmHg | IOP [2, 21]: 18 ± 1.4 mmHg | IOP [2, 22]: 15 ± 0.9 mmHg | IOP [2, 23]: 16 ± 1.9 mmHg | IOP [2, 24]: 16 ± 1.2 mmHg | IOP [2, 25]: 19 ± 1.2 mmHg | IOP [2, 26]: 22 ± 1.5 mmHg | IOP [2, 27]: 21 ± 1.1 mmHg | IOP [2, 28]: 17 ± 0.7 mmHg | IOP [2, 29]: 16 ± 1.0 mmHg | effect of triprolidine pretreatment on stimulant or depressant effects (Swiss-Webster mice [3]): Significant effects for pretreatment with triprolidine | mydriasis / pupil diameter (result in words) ([4]; 1% or 2% topical, rabbit): significant mydriasis | Mydriatic Responses, TREATED EYE ([4]; 1% topical): + (+ = 0–2 mm change) | Mydriatic Responses, UNTREATED EYE ([4]; 1% topical): + (+ = 0–2 mm change) | Pupil Diameter [4, 6]: 6 ± 0.2 mm | Pupil Diameter [4, 7]: 6 ± 0.2 mm | Pupil Diameter [4, 8]: 6 ± 0.2 mm | Pupil Diameter [4, 9]: 6 ± 0.2 mm | Pupil Diameter [4, 10]: 5 ± 0.2 mm | Pupil Diameter [4, 11]: 5 ± 0.2 mm | Pupil Diameter [4, 12]: 6 ± 0.2 mm | Pupil Diameter [4, 13]: 6 ± 0.2 mm | Pupil Diameter [4, 14]: 6 ± 0.2 mm | Pupil Diameter [4, 15]: 6 ± 0.2 mm | Pupil Diameter [4, 16]: 5 ± 0.2 mm | Pupil Diameter [4, 17]: 5 ± 0.2 mm | Mydriatic Responses, TREATED EYE ([4]; 2% topical): ++ (++ = 2–4 mm change) | Mydriatic Responses, UNTREATED EYE ([4]; 2% topical): ++ (++ = 2–4 mm change) | Pupil Diameter [4, 18]: 9 ± 0.4 mm | Pupil Diameter [4, 19]: 9 ± 0.4 mm | Pupil Diameter [4, 20]: 9 ± 0.4 mm | Pupil Diameter [4, 21]: 9 ± 0.4 mm | Pupil Diameter [4, 22]: 6 ± 0.4 mm | Pupil Diameter [4, 23]: 6 ± 0.4 mm | Pupil Diameter [4, 24]: 9 ± 0.4 mm | Pupil Diameter [4, 25]: 9 ± 0.4 mm | Pupil Diameter [4, 26]: 9 ± 0.4 mm | Pupil Diameter [4, 27]: 9 ± 0.4 mm | Pupil Diameter [4, 28]: 6 ± 0.4 mm | Pupil Diameter [4, 29]: 6 ± 0.4 mm
